The test system of the test is Recombinant amyloidogenic full length light chain protein WIL-FL T46L. The test can be described thus: Differential Scanning Fluorimetry Assay (thermal shift assay). Also: test concentration or dose not given here. In kind it is binding. Conditions: Thermal Shift Protein Stability Kit (Biotium), 96-well plates; protein and compounds incubated at RT for 30 min before adding the dye. Here is the method:
Differential Scanning Fluorimetry Assay
The stabilization effects the compounds have on the immunoglobulin light chain protein were quantitively measured using a thermal shift assay. Recombinant amyloidogenic full length light chain protein WIL-FL T46L was produced in E. coli, purified, and used in the assay. The Thermal Shift Protein Stability Kit from Biotium was used and the assay was done in 96-well plates following the manufacturer's instructions. The protein and compounds were incubated at RT for 30 min before adding the dye and subjected to the thermal shift assay. The thermal stability (Tm) of each sample was then determined using standard curve fitting methods and compared to vehicle. Data are expressed as temperature shift: [Tm]compound−[Tm]vehicle.
Results • 0-0.5° C.=* • >0.5-1° C.=** • >1-1.5° C.=*** • >1.5-2.5° C.=**** • >2.5° C.=*****
(In general: Differential scanning fluorimetry follows unfolding on heating by fluorescence.)
`Cc1cc(OC[C@H](C)c2ccccc2)cn2nc(C(O)CN3CC4(CCN(c5cnccn5)CC4)NC3=O)nc12` (some centres unmarked) [Compound 78]: the “DSF temperature shift: [Tm]compound−[Tm]vehicle” value (“DSF temperature shift” for short) is “***** (>2.5° C.=*****)”.
For `Cc1cc(OC[C@H](C)c2ccccc2)cn2nc(C(O)CN3CC4(CN(c5cccc(O)n5)C4)NC3=O)nc12` (some centres unmarked) [Compound 83], the “DSF temperature shift” value is recorded as “***** (>2.5° C.=*****)”.
For the molecule `Cc1cc(OC[C@H](C)c2ccccc2)cn2nc(CCN3CC4(CN(c5cccc(C(=O)O)n5)C4)NC3=O)nc12` [Compound 126], the “DSF temperature shift” value was “*** (>1-1.5° C.=***)”.
As for `Cc1cc(OC[C@@H](C)c2ccccc2)cn2nc(CCN3CC4(CCN(c5nccn6ccnc56)CC4)NC3=O)nc12` [Compound 11], the entry is “**** (>1.5-2.5° C.=****)”; as for `Cc1cc(OC[C@H](C)c2ccccc2)cn2nc(CCN3CC4(CCN(c5cc(F)nc(F)n5)CC4)NC3=O)nc12` [Compound 110], “**** (>1.5-2.5° C.=****)”.
Consider `Cc1cc(N2CCC(C)(c3ccccc3)C2)cn2nc(CCN3CC4(CCN(c5nccn6ccnc56)CC4)NC3=O)nc12` (centres unmarked) [Compound 1, 8-(Imidazo[1,2-a]pyrazin-8-yl)-3-(2-(8-methyl-6-(3-methyl-3-phenylpyrrolidin-1-yl)-[1,2,4]triazolo[1,5-a]pyridin-2-yl)ethyl)-1,3,8-triazaspiro[4.5]decan-2-one], for which the “DSF temperature shift” value is “***** (>2.5° C.=*****)”.
Consider `Cc1cc(N2CC[C@@](C)(c3ccccc3)C2)cn2nc(C(O)CN3CC4(CCN(c5ccnc(O)c5)CC4)NC3=O)nc12` (some centres unmarked) [Compound 21], for which the “DSF temperature shift” value is reported as “***** (>2.5° C.=*****)”.
As for `Cc1cc(OC[C@H](C)c2ccccc2)cn2nc(CCN3CC4(CCN(C(=O)c5nncn5C)CC4)NC3=O)nc12` [Compound 93], the “DSF temperature shift” value was “**** (>1.5-2.5° C.=****)”.
As for `Cc1nccc(N2CCC3(CC2)CN(CC(O)c2nc4c(C)cc(OCC5(c6ccccc6)CC5)cn4n2)C(=O)N3)n1` (centres unmarked) [Compound 50], the “DSF temperature shift” value is reported as “**** (>1.5-2.5° C.=****)”.
As for `Cc1cc(OCC2(c3ccccc3)CC2)cn2nc(C(O)CN3CC4(CCN(c5ccc(Cl)nc5)CC4)NC3=O)nc12` (centres unmarked) [Compound 41], the “DSF temperature shift” value is given as “**** (>1.5-2.5° C.=****)”.
On to `Cc1cc(OC[C@H](C)c2ccccc2)cn2nc(CCN3CC4(CCN(c5cc(C(F)(F)F)ccn5)CC4)NC3=O)nc12` [Compound 95], for which the “DSF temperature shift” value is reported as “*** (>1-1.5° C.=***)”.
As for `Cc1cc(OCC2(c3ccccc3)CC2)cn2nc(C(O)CN3CC4(CCN(c5ccn(C)n5)CC4)NC3=O)nc12` (centres unmarked) [Compound 61], the entry is “**** (>1.5-2.5° C.=****)”; as for `Cc1cc(N2CCC3(CC2)CN(CCc2nc4c(C)cc(OC[C@H](C)c5ccccc5)cn4n2)C(=O)N3)ccn1` [Compound 98], “***** (>2.5° C.=*****)”.
With `Cc1cc(OC[C@H](C)c2ccccc2)cn2nc(CCN3CC4(CCN(c5cccc(Cl)n5)CC4)NC3=O)nc12` [Compound 102], the “DSF temperature shift” value is reported as “*** (>1-1.5° C.=***)”.
For `Cc1cc(OC[C@H](C)c2ccccc2)cn2nc(CCN3CC4(CCN(c5ncns5)CC4)NC3=O)nc12` [Compound 119], the “DSF temperature shift” value is recorded as “**** (>1.5-2.5° C.=****)”.
As to `Cc1ccc(N2CCC3(CC2)CN(CC(O)c2nc4c(C)cc(OCC5(c6ccccc6)CC5)cn4n2)C(=O)N3)cn1` (centres unmarked) [Compound 128], the “DSF temperature shift” value was “**** (>1.5-2.5° C.=****)”.
For `Cc1cc(N2CCC3(CC2)CN(CC(O)c2nc4c(C)cc(OCC5(c6ccccc6)CC5)cn4n2)C(=O)N3)ccn1` (centres unmarked) [Compound 18], the “DSF temperature shift” value is listed as “***** (>2.5° C.=*****)”.
As for `Cc1cc(OCC2(c3ccccc3)CC2)cn2nc(C(O)CN3CC4(CCN(c5ccnnc5)CC4)NC3=O)nc12` (centres unmarked) [Compound 47], the entry is “**** (>1.5-2.5° C.=****)”; as for `Cc1cc(OC[C@H](C)c2ccccc2)cn2nc(C(C)(O)CN3CC4(CCN(C(=O)Cc5ncnn5C)CC4)NC3=O)nc12` (some centres unmarked) [Compound 66], “*** (>1-1.5° C.=***)”; as for `Cc1cc(OC[C@H](C)c2ccccc2)cn2nc(CCN3CC4(CCN(c5ccnc(S(C)(=O)=O)n5)CC4)NC3=O)nc12` [Compound 106], “***** (>2.5° C.=*****)”.
For the molecule `COC(=O)c1cnc(N2CCC3(CC2)CN(CC(O)c2nc4c(C)cc(OCC5(c6ccccc6)CC5)cn4n2)C(=O)N3)c2nccn12` (centres unmarked) [Compound 136], the “DSF temperature shift” value is on record as “***** (>2.5° C.=*****)”.
With `Cc1cc(OC[C@H](C)c2ccccc2)cn2nc(C(=O)CN3CC4(CCN(c5nccn6cnnc56)CC4)CC3=O)nc12` [Compound 64], the “DSF temperature shift” value was “**** (>1.5-2.5° C.=****)”.
`Cc1cc(OC[C@H](C)c2ccccc2)cn2nc(C(O)CN3CC4(CN(c5cccc(C(=O)O)n5)C4)NC3=O)nc12` (some centres unmarked) [Compound 86]: the “DSF temperature shift” value is “**** (>1.5-2.5° C.=****)”.
As to `Cc1cc(OC[C@H](C)c2ccccc2)cn2nc(CCN3CC4(CCN(c5ncn(C)n5)CC4)NC3=O)nc12` [Compound 120], the “DSF temperature shift” value is listed as “**** (>1.5-2.5° C.=****)”.
Take `Cc1cc(N2CC[C@@](C)(c3ccccc3)C2)cn2nc(C(C)(O)CN3CC4(CCN(c5ccnc(O)c5)CC4)NC3=O)nc12` (some centres unmarked) [Compound 20]: the “DSF temperature shift” value is reported as “***** (>2.5° C.=*****)”.
Turning to `Cc1ccc(N2CCC3(CC2)CN(CCc2nc4c(C)cc(OC[C@H](C)c5ccccc5)cn4n2)C(=O)N3)nn1` [Compound 121], the “DSF temperature shift” value is listed as “**** (>1.5-2.5° C.=****)”.
As to `COC(CN1CC2(CCN(c3ccnc(O)c3)CC2)NC1=O)c1nc2c(C)cc(OC[C@H](C)c3ccccc3)cn2n1` (some centres unmarked) [Compound 138], the “DSF temperature shift” value is given as “**** (>1.5-2.5° C.=****)”.
On to `Cc1cc(OC[C@H](C)c2ccccc2)cn2nc(C(C)(O)CN3CC4(CCN(c5ccnc(O)c5)CC4)NC3=O)nc12` (some centres unmarked) [Compound 67], for which the “DSF temperature shift” value was “**** (>1.5-2.5° C.=****)”.
Consider `Cc1cc(OC[C@H](C)c2ccccc2)cn2nc(CCN3CC4(CCN(c5ccnc(C(F)(F)F)c5)CC4)NC3=O)nc12` [Compound 96], for which the “DSF temperature shift” value is “*** (>1-1.5° C.=***)”.
Regarding `Cc1cc(OC[C@H](C)c2ccccc2)cn2nc(CCN3CC4(CCN(c5nccn6ccnc56)CC4)NC3=O)nc12` [Compound 10], the “DSF temperature shift” value is recorded as “***** (>2.5° C.=*****)”.
Consider `Cc1nonc1C(=O)N1CCC2(CC1)CN(CC(O)c1nc3c(C)cc(OCC4(c5ccccc5)CC4)cn3n1)C(=O)N2` (centres unmarked) [Compound 31], for which the “DSF temperature shift” value was “**** (>1.5-2.5° C.=****)”.
Consider `Cc1cc(N2CC[C@@](C)(c3ccccc3)C2)cn2nc(C(O)CN3CC4(CN(c5ccnc(O)c5)C4)NC3=O)nc12` (some centres unmarked) [Compound 23], for which the “DSF temperature shift” value was “***** (>2.5° C.=*****)”.
For `Cc1cc(OCC2(c3ccccc3)CC2)cn2nc(C(O)CN3CC4(CCN(C(=O)Cn5cnnn5)CC4)NC3=O)nc12` (centres unmarked) [Compound 33], the “DSF temperature shift” value is “**** (>1.5-2.5° C.=****)”.
For `Cc1cc(N2CC[C@](C)(c3ccccc3)C2)cn2nc(CCN3CC4(CCN(c5nccn6ccnc56)CC4)NC3=O)nc12` [Compound 2], the “DSF temperature shift” value is “***** (>2.5° C.=*****)”.
In the case of `Cc1cc(OC[C@H](C)c2ccccc2)cn2nc(C(O)CN3CC4(CN(c5nccc(C(=O)O)n5)C4)NC3=O)nc12` (some centres unmarked) [Compound 87], the “DSF temperature shift” value is listed as “***** (>2.5° C.=*****)”.
`Cc1cc(OCC(C)c2ccccc2)cn2nc(CCN3CC4(CCN(c5nccn6ccnc56)CC4)NC3=O)nc12` (centres unmarked) [Compound 9, 8-(Imidazo[1,2-a]pyrazin-8-yl)-3-(2-(8-methyl-6-(2-phenylpropoxy)-[1,2,4]triazolo[1,5-a]pyridin-2-yl)ethyl)-1,3,8-triazaspiro[4.5]decan-2-one]: the “DSF temperature shift” value is “***** (>2.5° C.=*****)”.
`Cc1cc(OCC2(c3ccccc3)CC2)cn2nc(C(O)CN3CC4(CCN(c5cc(F)nc(F)c5)CC4)NC3=O)nc12` (centres unmarked) [Compound 39]: the “DSF temperature shift” value is given as “** (>0.5-1° C.=**)”.
Regarding `Cc1cc(OC[C@H](C)c2ccccc2)cn2nc(C(O)CN3CC4(CCN(c5cncnc5)CC4)NC3=O)nc12` (some centres unmarked) [Compound 75], the “DSF temperature shift” value is “**** (>1.5-2.5° C.=****)”.
On to `Cc1cc(OCC2(c3ccccc3)CC2)cn2nc(C(O)CN3CC4(CCN(c5ccncc5)CC4)NC3=O)nc12` (centres unmarked) [Compound 46], for which the “DSF temperature shift” value is reported as “**** (>1.5-2.5° C.=****)”.
For the molecule `CNC(=O)c1cc(N2CCC3(CC2)CN(Cc2nc4c(C)cc(OC[C@H](C)c5ccccc5)cn4n2)C(=O)N3)ccn1` [Compound 134], the “DSF temperature shift” value is on record as “**** (>1.5-2.5° C.=****)”.
As to `CC[C@]1(c2ccccc2)CCN(c2cc(C)c3nc(CCN4CC5(CCN(c6nccn7cncc67)CC5)NC4=O)nn3c2)C1` [Compound 6], the “DSF temperature shift” value is listed as “***** (>2.5° C.=*****)”.
Under `Cc1cc(OC[C@H](C)c2ccccc2)cn2nc(CCN3CC4(CCN(c5cc(Cl)nc(S(C)(=O)=O)n5)CC4)NC3=O)nc12` [Compound 99] stands “**** (>1.5-2.5° C.=****)”.
Consider `Cc1nccnc1N1CCC2(CC1)CN(CCc1nc3c(C)cc(OC[C@H](C)c4ccccc4)cn3n1)C(=O)N2` [Compound 94], for which the “DSF temperature shift” value was “**** (>1.5-2.5° C.=****)”.
As for `Cc1cc(OC[C@H](C)c2ccccc2)cn2nc(CCN3CC4(CCN(c5ccnc(F)n5)CC4)NC3=O)nc12` [Compound 111], the entry is “**** (>1.5-2.5° C.=****)”.
